Experimental data reported in US11590129B2, “Combination therapy with an antitumor alkaloid” (PHARMA MAR, S.A., priority 2010, dated 2023).

How the values were obtained:
A2780 tumors = assay: Human ovarian tumor xenografts (A2780) in athymic nude mice, tumor volume % T/C; type: in vivo
Method: Female athymic nude mice (Harlan Laboratories Models, S.L. (Barcelona, Spain) were utilized for all experiments. Animals were housed in individually ventilated cages, up to ten per cage in a 12-hour light-dark cycle at 21-23° C. and 40-60% humidity. The mice were allowed free access to irradiated standard rodent diet and sterilized water. Animals were acclimated for at least 5 days prior to tumor implantation with a tumor cell suspension.
The formula to calculate volume for a prolate ellipsoid was used to estimate tumor volume (mm^3) from 2-dimensional tumor measurements: Tumor volume (mm^3)=[L×W^2]÷2, where L is the length and it is the longest diameter in mm, and W is the width and it is the shortest diameter in mm of a tumor. Assuming unit density, volume was converted to weight (i.e., 1 mm^3=1 mg). Tumor volume and animal body weights were measured 2-3 times per week starting form the first day of treatment (Day 0).
PM01183 was provided in the form of vials of lyophilized PM01183 cake which was reconstituted with water for infusion to a concentration of 0.2 mg/mL. The PM01183 stock solution was further diluted in 5% glucose solution for injection to the dosing formulation concentrations. […] Vinorelbine was provided as a solution prepared by diluting the product with 0.9% saline solution.
Dose level groups were administered either as single agents or in combination.
Comparison of the median tumor volume in the treatment groups (T) to the median tumor volume in the control group (T/C×100%) was used for evaluation of the antitumor efficacy.
Day 9 for PM01183 and vinorelbine study) using the median-effect principle (Chou T. C. Pharmacol. Rev.

[1] = system: RAMOS human lymphoma cell line; assay: cells; conditions: Homo sapiens, Ramos, 72 h
[2] = system: U-937 human lymphoma cell line; assay: cells; conditions: Homo sapiens, U-937, 72 h
[3] = PM01183 0.045 mg/kg iv days 0,7, doxorubicin study
[4] = PM01183 0.045 mg/kg iv days 0,7, paclitaxel study
[5] = PM01183 0.045 mg/kg iv days 0,7, vinorelbine study
[6] = PM01183 0.09 mg/kg iv days 0,7, doxorubicin study
[7] = PM01183 0.09 mg/kg iv days 0,7, paclitaxel study
[8] = PM01183 0.09 mg/kg iv days 0,7, vinorelbine study
[9] = PM01183 0.135 mg/kg iv days 0,7, doxorubicin study
[10] = PM01183 0.135 mg/kg iv days 0,7, paclitaxel study
[11] = PM01183 0.135 mg/kg iv days 0,7, vinorelbine study
[12] = PM01183 0.18 mg/kg iv days 0,7, doxorubicin study
[13] = PM01183 0.18 mg/kg iv days 0,7, paclitaxel study
[14] = PM01183 0.18 mg/kg iv days 0,7, vinorelbine study

Question: What does the source list for `COc1ccc2[nH]c3c(c2c1)CCN[C@]31CS[C@@H]2c3c(OC(C)=O)c(C)c4c(c3[C@H](COC1=O)N1[C@@H]2[C@H]2c3c(cc(C)c(OC)c3O)C[C@@H]([C@@H]1O)N2C)OCO4` [PM01183]?
Answer: % T/C on day 0 (A2780 tumors; [3]): 100.1%; % T/C on day 3 (A2780 tumors; [3]): 98.2%; % T/C on day 5 (A2780 tumors; [3]): 98.6%; % T/C on day 7 (A2780 tumors; [3]): 97.7%; % T/C on day 10 (A2780 tumors; [3]): 90.0%; % T/C on day 0 (A2780 tumors; [4]): 94.0%; % T/C on day 3 (A2780 tumors; [4]): 91.1%; % T/C on day 5 (A2780 tumors; [4]): 99.6%; % T/C on day 7 (A2780 tumors; [4]): 88.0%; % T/C on day 10 (A2780 tumors; [4]): 73.1%; % T/C on day 0 (A2780 tumors; [5]): 97.8%; % T/C on day 2 (A2780 tumors; [5]): 107.5%; % T/C on day 5 (A2780 tumors; [5]): 93.6%; % T/C on day 7 (A2780 tumors; [5]): 92.5%; % T/C on day 9 (A2780 tumors; [5]): 97.1%; % T/C on day 0 (A2780 tumors; [6]): 100.2%; % T/C on day 3 (A2780 tumors; [6]): 93.3%; % T/C on day 5 (A2780 tumors; [6]): 95.2%; % T/C on day 7 (A2780 tumors; [6]): 93.5%; % T/C on day 10 (A2780 tumors; [6]): 87.7%; % T/C on day 0 (A2780 tumors; [7]): 94.2%; % T/C on day 3 (A2780 tumors; [7]): 88.5%; % T/C on day 5 (A2780 tumors; [7]): 114.1%; % T/C on day 7 (A2780 tumors; [7]): 103.3%; % T/C on day 10 (A2780 tumors; [7]): 88.0%; % T/C on day 0 (A2780 tumors; [8]): 98.0%; % T/C on day 2 (A2780 tumors; [8]): 88.6%; % T/C on day 5 (A2780 tumors; [8]): 61.2%; % T/C on day 7 (A2780 tumors; [8]): 87.6%; % T/C on day 9 (A2780 tumors; [8]): 94.5%; % T/C on day 0 (A2780 tumors; [9]): 102.2%; % T/C on day 3 (A2780 tumors; [9]): 82.4%; % T/C on day 5 (A2780 tumors; [9]): 86.6%; % T/C on day 7 (A2780 tumors; [9]): 89.2%; % T/C on day 10 (A2780 tumors; [9]): 82.4%; % T/C on day 0 (A2780 tumors; [10]): 101.2%; % T/C on day 3 (A2780 tumors; [10]): 89.9%; % T/C on day 5 (A2780 tumors; [10]): 99.8%; % T/C on day 7 (A2780 tumors; [10]): 84.5%; % T/C on day 10 (A2780 tumors; [10]): 61.2%; % T/C on day 0 (A2780 tumors; [11]): 98.3%; % T/C on day 2 (A2780 tumors; [11]): 105.3%; % T/C on day 5 (A2780 tumors; [11]): 77.2%; % T/C on day 7 (A2780 tumors; [11]): 79.1%; % T/C on day 9 (A2780 tumors; [11]): 78.7%; % T/C on day 0 (A2780 tumors; [12]): 100.9%; % T/C on day 3 (A2780 tumors; [12]): 70.2%; % T/C on day 5 (A2780 tumors; [12]): 68.5%; % T/C on day 7 (A2780 tumors; [12]): 69.3%; % T/C on day 10 (A2780 tumors; [12]): 62.1%; % T/C on day 0 (A2780 tumors; [13]): 101.6%; % T/C on day 3 (A2780 tumors; [13]): 68.9%; % T/C on day 5 (A2780 tumors; [13]): 83.1%; % T/C on day 7 (A2780 tumors; [13]): 69.1%; % T/C on day 10 (A2780 tumors; [13]): 52.8%; % T/C on day 0 (A2780 tumors; [14]): 98.9%; % T/C on day 2 (A2780 tumors; [14]): 101.6%; % T/C on day 5 (A2780 tumors; [14]): 72.2%; % T/C on day 7 (A2780 tumors; [14]): 61.3%; % T/C on day 9 (A2780 tumors; [14]): 62.8%; EC50 [1]: 1.39 nM; EC50 [2]: 1.03 nM
